According to patent US7608622B2, “Imidazo[4,5-b]pyrazinone inhibitors of protein kinases” (Janssen Pharmaceutica NV, priority 2004, dated 2009):
pIC50: −log10 of the molar value.

The compounds below were run against T1, Aurora-2 (Homo sapiens, UniProt O14965) (assay: Aurora-2 Enzymatic Assay (ELISA-based)). Conditions: phosphorylated Aurora-2 (residues 125-391), Histone H3 Ser-10 phosphorylation, averages of three independent measurements; read-out: Aurora-2 IC50 Enzyme.
T1 construct: autophosphorylation of Aurora-2 (residues 125-391)
T1 sequence (O14965 125-391): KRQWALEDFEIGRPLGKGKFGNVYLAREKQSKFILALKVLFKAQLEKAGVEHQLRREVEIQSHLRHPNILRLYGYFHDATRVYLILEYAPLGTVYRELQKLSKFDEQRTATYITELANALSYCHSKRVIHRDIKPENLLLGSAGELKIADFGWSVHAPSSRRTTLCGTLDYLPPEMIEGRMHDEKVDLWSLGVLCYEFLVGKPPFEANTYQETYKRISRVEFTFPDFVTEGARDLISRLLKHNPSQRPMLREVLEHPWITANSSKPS
Assay type: biochemical
Method: In vitro assays were run to measure potency of Aurora-2 kinase inhibition by selected compounds of Formula I.
Aurora-2 Enzymatic Assay. An ELISA-based enzymatic assay was used to determine the compound potency for Aurora-2. In this assay, phosphorylated Aurora-2 (Pi-Aurora-2) catalyzes the ATP-dependent phosphorylation of Ser-10 of Histone H3. Pi-Aurora-2 was produced by autophosphorylation of Aurora-2 (residues 125-391) by 1 mM ATP in the presence of 10 mM MgCl2. The assay buffer used was 100 mM HEPES, pH 7.5, 1 mM DTT, 0.01% (v/v) Tween-20. Compounds were diluted in assay buffer containing 4% DMSO just prior to the assay. • Procedure. High-binding 96-well ELISA plates (Costar 9018) were coated overnight at 4° C. with 10 μg/ml human Histone H3 (Upstate) in PBS (100 μl/well). The following day, the plates were emptied and blocked with 1% BSA in PBS (150 μl/well) for 1 h at 37° C. At the end of the incubation, plates were washed 3 times with 0.01% Tween-20 in PBS (300 μl/well). 50 μl of compound were dispensed to each well followed by addition of 20 μl 10 mM MgCl2 and 20 μl 50 μM ATP (Sigma). The reaction was initiated by addition of 10 μl 30 nM Pi-Aurora-2. […] The reaction was quenched with 9 μl 50 mM EDTA and the plates were washed 5 times with 0.01% Tween-20 in PBS (300 μl/well). The phospho-histone H3 (Ser10) 6G3 monoclonal antibody (Cell Signaling) was then diluted 2,000-fold with 1% BSA in PBS, and was added to the plates (100 μl/well). Following 1 h incubation at 37° C., the plates were washed as described above. The HRP-conjugated secondary antibody (goat anti-mouse Ig(H+ L)-HRP human absorbed, Southern Biotechnology Associates, Inc.) was diluted 20,000-fold with 1% BSA in PBS and was added to the plates (100 μl/well). The plates were incubated for 1 h at 37° C. and then washed 5 times with 0.01% Tween-20 in PBS (300 μl/well). 100 μl/well TMB, SureBlue Reserve (KPL) were added. After ca. 5-6 min, each well received 100 μl 1 M HCl and the OD450 was measured with a SpectraMax Plus microplate reader (Molecular Devices). Under these conditions, absorbance values for positive and negative controls were ca. 0.1 and 1.7, respectively, and were used to define the 100% and 0% inhibition of the Aurora-2 reaction. The IC50 values reported (Table 1) are the averages of three independent measurements.
For COc1cccc(Cn2c(=O)[nH]c3ncc(-c4cc(OC)c(OC)c(OC)c4)nc32)c1 [Compound 32, 1-(3-Methoxybenzyl)-6-(3,4,5-trimethoxyphenyl)-1,3-dihydro-imidazo[4,5-b]pyrazin-2-one], the pIC50 was 6.00 to 6.30.
COc1ccc(-c2cnc3[nH]c(=O)n(Cc4ccccc4)c3n2)cc1C(N)=O [Compound 26, 5-(3-Benzyl-2-oxo-2,3-dihydro-1H-imidazo[4,5-b]pyrazin-5-yl)-2-methoxybenzamide] was tested, and the pIC50 was < 6.00.
In the case of C[C@@H](c1ccccc1)n1c(=O)[nH]c2ncc(-c3cc4ccccc4[nH]3)nc21 [Compound 8, 6-(1H-Indol-2-yl)-1-((S)-(−)-1-phenylethyl)-1,3-dihydro-imidazo[4,5-b]pyrazin-2-one], the pIC50 was < 6.00.
For COc1ccc(-c2cnc3[nH]c(=O)n(Cc4ccccc4)c3n2)c(OC)c1 [Compound 14, 1-Benzyl-6-(2,4-dimethoxyphenyl)-1,3-dihydroimidazo[4,5-b]pyrazin-2-one], the pIC50 was < 6.00.
In the case of COc1ccc(-c2cnc3[nH]c(=O)n(Cc4ccccc4)c3n2)cc1C(=O)O [Compound 23, 5-(3-Benzyl-2-oxo-2,3-dihydro-1H-imidazo[4,5-b]pyrazin-5-yl)-2-methoxybenzoic acid], the pIC50 was > 6.30.
In the case of C[C@@H](c1ccccc1)n1c(=O)[nH]c2ncc(-c3cccc(C#N)c3)nc21 [Compound 6, 3-[2-Oxo-3-((S)-(−)-1-phenylethyl)-2,3-dihydro-1H-imidazo[4,5-b]pyrazin-5-yl]benzonitrile], the pIC50 was < 6.00.
O=C(O)c1cccc(-c2cnc3[nH]c(=O)n(Cc4ccccc4)c3n2)c1 [Compound 18, 3-(3-Benzyl-2-oxo-2,3-dihydro-1H-imidazo[4,5-b]pyrazin-5-yl)benzoic acid] was tested, and the pIC50 was 6.00 to 6.30.
